# Counter-ions that a name gives are not always drawn. Residues, ends and D or L forms follow the SMILES beside them.
# Columns and labels:
# plasmin [1] = target: T1, plasmin (Homo sapiens, UniProt P00747); conditions: chromogenic substrate; cited from earlier work
# T1 construct: After the cleavage, plasmin is an active two-chain disulfide linked molecule
# human uPA = human uPA (Homo sapiens, UniProt P00749); conditions: read-out: Km for human uPA; chromogenic substrate; cited from earlier work
# CIA-sensitive mice [2] = test: Aprotinin treatment of CIA-sensitive mice, arthritis induced by rat collagen II; format: in vivo; conditions: 0.5 ml aprotinin w/o emulsion i.p. every 72 hr; collagen II induction
# Source text: (§1) To test potential drug candidates, arthritis is induced in CIA-sensitive mice either by immunization with collagen type II (CIA) or, alternatively, by use of monoclonal antibodies.
# (§2) The present example describes treatment of CIA-sensitive mice with aprotinin (Trasylol; Bayer). Trasylol is an inhibitor of plasmin and thereby, according to the invention, a candidate drug for treating arthritis.
# (§3) Since aprotinin has a rather short half life in mice, a sustained release system for Trasylol is used. An exemplary system based on water/oil (w/o) emulsions where aprotinin is incorporated is described in detail by Bjerregaard et al. (Journal of Controlled release 2001; 71:87-98).
# CIA induction using Collagen-II. Collagen-induced arthritis (CIA) is induced in mice with Rat collagen II, which is prepared from the Swarm chondrosarcoma after pepsin digestion, as previously described (Andersson and Holmdahl, Eur J Immunol 1990;20:1061-1066). Collagen II is dissolved at a concentration of 2 mg/ml in 0.1 M acetic acid and stored at 4° C. Arthritis is induced by intrademal injection at the basis of the tail with […] of […] rat collagen II emulsified with an equal volume of complete Freund's adjuvant (CFA, with Mycobacterium butyricum; Difco, Detroit, Mich.). […]
# [3] = cited from earlier work
# CIA-sensitive mice [4] = test: Aprotinin treatment of CIA-sensitive mice, arthritis induced by monoclonal antibodies C1 and M2139; format: in vivo; conditions: 0.5 mL aprotinin w/o emulsion i.p. every 72 hours; monoclonal antibody induction
# Source text: as §1
# Using monoclonal antibodies to induce CIA has an advantage in that it allows for better control of the induction.
# as §2, §3
# The mice are injected intraperitoneally with 0.5 mL aprotinin emulsion, containing 30% w/w disperse phase with 87 mg aprotinin per ml aqueous phase (corresponding to a dose of approximately 85,000 KIU (“kallikrein-inactivator units”) aprotinin, using a Hamilton syringe 21 G needle. (It is also possible to carry out controlled administration of aprotinin via an osmotic pump.) The injection is repeated every 72 hours.
# CIA induction using monoclonal antibodies. […] The development of arthritis is evaluated with the clinical grading system described in Example 1. […]
# plasmin [5] = target: T1, plasmin; conditions: cited from earlier work
# [6] = tested on: plasminogen deficient mice; test: Restoration of plasminogen in plasminogen deficient mice, arthritis induced by collagen II monoclonal antibody cocktail; format: in vivo
# Description: Induction of arthritis using monoclonal antibodies directed against collagen type II. A battery of monoclonal antibodies against collagen type II were produced by standard procedures. Induction of arthritis was performed by intravenous injection of a cocktail of two antibodies denoted C1 and M2139 at day 0. Five days later (day 5), lipopolysacchride was injected intraperitoneally to enhance the immune response. The development of arthritis was evaluated with a previously described clinical grading system.
# Clinical grading evaluation of arthritis. The development of arthritis was tracked using a scoring system which defines one inflamed toe or knuckle as 1 point and one inflamed wrist or ankle as […], resulting in a score of 0-15 points for each paw and 0-60 points per mouse. Deformed or swollen without redness is not included in this system.
# Induction of arthritis in plasminogen deficient mice by restoration of plasminogen. 100 μl of human plasminogen, at a concentration of 10 mg/ml, was injected intravenously into the plasminogen deficient mice every 24 hours in order to restore the serum plasminogen level. 12 hours after the first injection of plasminogen, three groups of mice, plg-wildtype, plg-heterozygous, plg-deficient were again injected with plasminogen before arthritis was induced using the Collagen II monoclonal antibody cocktails as described above. The development of arthritis was followed by the clinical scoring system.
molecule,measurement,setting,value
"CC(C)C[C@H](NC(=O)[C@H](N)C(C)C)C(=O)N[C@@H](CCCCN)C(=O)Nc1ccc([N+](=O)[O-])cc1 [S-2251, H-D-Valyl-L-leucyl-L-lysine-p-nitroaniline dihydrochloride] (HELM PEPTIDE1{[dV].L.K.[O=[N+]([O-])c1ccc(N[*:1])cc1]}$$$$V2.0)",Km,plasmin [1],300 µM
L-pyroglutamyl-glycyl-L-arginine-p-nitroaniline hydrochloride [S-2444],Km,human uPA,90 µM
aprotinin,incidence of the CIA vs control mice,CIA-sensitive mice [2],lower
same,severity of the CIA vs control mice,CIA-sensitive mice [2],lower
same,half life in mice,[3],rather short
same,incidence of the CIA vs control mice,CIA-sensitive mice [4],lower
same,severity of the CIA vs control mice,CIA-sensitive mice [4],lower
"α2AP: single-chain glycoprotein, physiological inhibitor of plasmin (protein, UniProt P08697 40-491, looked up) Alpha-2-antiplasmin: NQEQVSPLTLLKLGNQEPGGQTALKSPPGVCSRDPTPEQTHRLARAMMAFTADLFSLVAQTSTCPNLILSPLSVALALSHLALGAQNHTLQRLQQVLHAGSGPCLPHLLSRLCQDLGPGAFRLAARMYLQKGFPIKEDFLEQSEQLFGAKPVSLTGKQEDDLANINQWVKEATEGKIQEFLSGLPEDTVLLLLNAIHFQGFWRNKFDPSLTQRDSFHLDEQFTVPVEMMQARTYPLRWFLLEQPEIQVAHFPFKNNMSFVVLVPTHFEWNVSQVLANLSWDTLHPPLVWERPTKVRLPKLYLKHQMDLVATLSQLGLQELFQAPDLRGISEQSLVVSGVQHQSTLELSEVGVEAAAATSIAMSRMSLSSFSVNRPFLFFIFEDTTGLPLFVGSVRNPNPSAPRELKEQQDSPGNKDFLQSLKGFPRGDKLFGPDLKLVPPMEEDYPQFGSPK",second-order rate constant of inhibition of plasmin,plasmin [5],above 10^7 M^−1s^−1
Human plasminogen: human plasminogen injected intravenously into plasminogen deficient mice to restore the serum plasminogen level (protein) MEHKEVVLLLLLFLKSGQGEPLDDYVNTQGASLFSVTKKQLGAGSIEECAAKCEEDEEFTCRAFQYHSKEQQCVIMAENRKSSIIIRMRDVVLFEKKVYLSECKTGNGKNYRGTMSKTKNGITCQKWSSTSPHRPRFSPATHPSEGLEENYCRNPDNDPQGPWCYTTDPEKRYDYCDILECEEECMHCSGENYDGKISKTMSGLECQAWDSQSPHAHGYIPSKFPNKNLKKNYCRNPDRELRPWCFTTDPNKRWELCDIPRCTTPPPSSGPTYQCLKGTGENYRGNVAVTVSGHTCQHWSAQTPHTHNRTPENFPCKNLDENYCRNPDGKRAPWCHTTNSQVRWEYCKIPSCDSSPVSTEQLAPTAPPELTPVVQDCYHGDGQSYRGTSSTTTTGKKCQSWSSMTPHRHQKTPENYPNAGLTMNYCRNPDADKGPWCFTTDPSVRWEYCNLKKCSGTEASVVAPPPVVLLPDVETPSEEDCMFGNGKGYRGKRATTVTGTPCQDWAAQEPHRHSIFTPETNPRAGLEKNYCRNPDGDVGGPWCYTTNPRKLYDYCDVPQCAAPSFDCGKPQVEPKKCPGRVVGGCVAHPHSWPWQVSLRTRFGMHFCGGTLISPEWVLTAAHCLEKSPRPSSYKVILGAHQEVNLEPHVQEIEVSRLFLEPTRKDIALLKLSSPAVITDKVIPACLPSPNYVVADRTECFITGWGETQGTFGAGLLKEAQLPVIENKVCNRYEFLNGRVQSTELCAGHLAGGTDSCQGDSGGPLVCFEKDKYILQGVTSWGLGCARPNKPGVYVRVSRFVTWIEGVMRNN,plasminogen deficient mice that developed joint inflammation,"[6]; five days after the cocktail injection, human plasminogen injected 12 hours before challenge",3 out of 4
same,Arthritic score,"[6]; plg −/− mice, human plasminogen i.v. every 24 hours, anti-collagen II monoclonal antibody cocktail, clinical score 0-60 points per mouse",6.7 ± 2.9
same,Incidence of RA,"[6]; plg −/− mice, human plasminogen i.v. every 24 hours, anti-collagen II monoclonal antibody cocktail, mice affected/total",3/4

# — patent publication US20030096733A1, “Novel drug targets for arthritis” (Omnio AB, priority 2001, published 2003)
